Assay results as given in publication PMC3914206.

Legend:
Test in all cases: KiNativ chemical proteomics profiling in HeLa and PC3 cell lysates
Assay type in all cases: binding
[1] = target: T1, selected panels of kinases in HeLa and PC3 cell lysates (Homo sapiens, UniProt O00418); details: 10 uM, peptide YIkYNSNSGFVR, labeling site Protein Kinase Domain
T1 construct: endogenous in cells; host or cells: HeLa and PC3 cell lysates

[2] = target: T2, selected panels of kinases in HeLa and PC3 cell lysates (Homo sapiens, UniProt O15111); details: 10 uM; proteome HEL; peptide DLk[…]; labeling site Lys2
T2 construct: endogenous in cells; host or cells: HeLa and PC3 cell lysates

[3] = target: T3, selected panels of kinases in HeLa and PC3 cell lysates (Homo sapiens, UniProt O75716); details: 10 uM, peptide DLk[…], labeling site Lys2
T3 construct: endogenous in cells; host or cells: HeLa and PC3 cell lysates

[4] = target: T4, selected panels of kinases in HeLa and PC3 cell lysates (Homo sapiens, UniProt O94921); details: 10 uM; PFTAIRE1; peptide LVALkVIR; proteome PC3; labeling site Lys1
T4 construct: endogenous in cells; host or cells: HeLa and PC3 cell lysates

[5] = target: T5, selected panels of kinases in HeLa and PC3 cell lysates (Homo sapiens, UniProt O95835); details: 10 uM; proteome HEL; peptide ALYATkTLR; labeling site Lys1
T5 construct: endogenous in cells; host or cells: HeLa and PC3 cell lysates

[6] = target: T6, selected panels of kinases in HeLa and PC3 cell lysates (Homo sapiens, UniProt O96017); details: 10 uM
T6 construct: endogenous in cells; host or cells: HeLa and PC3 cell lysates

[7] = target: T7, selected panels of kinases in HeLa and PC3 cell lysates (Homo sapiens, UniProt P10398); details: 10 uM; proteome HEL; peptide DLk[…]; labeling site Lys2
T7 construct: endogenous in cells; host or cells: HeLa and PC3 cell lysates

[8] = target: T8, selected panels of kinases in HeLa and PC3 cell lysates (Homo sapiens, UniProt P12931); details: 10 uM; SRC; peptide VAIk[…]; proteome PC3; labeling site Lys1
T8 construct: endogenous in cells; host or cells: HeLa and PC3 cell lysates

[9] = target: T9, selected panels of kinases in HeLa and PC3 cell lysates (Homo sapiens, UniProt P27361); details: 10 uM, peptide DLk[…], labeling site Lys2
T9 construct: endogenous in cells; host or cells: HeLa and PC3 cell lysates

[10] = target: T10, selected panels of kinases in HeLa and PC3 cell lysates (Homo sapiens, UniProt P29317); details: 10 uM, proteome PC3
T10 construct: endogenous in cells; host or cells: HeLa and PC3 cell lysates

[11] = target: T11, selected panels of kinases in HeLa and PC3 cell lysates (Homo sapiens, UniProt P41240); details: 10 uM, peptide VSDFGLTk[…], labeling site Activation Loop
T11 construct: endogenous in cells; host or cells: HeLa and PC3 cell lysates

[12] = target: T12, selected panels of kinases in HeLa and PC3 cell lysates (Homo sapiens, UniProt P42680); details: 10 uM; TEC; peptide […]kFPVK; proteome HEL; labeling site Activation Loop
T12 construct: endogenous in cells; host or cells: HeLa and PC3 cell lysates

[13] = target: T13, selected panels of kinases in HeLa and PC3 cell lysates (Homo sapiens, UniProt P50613); details: 10 uM; proteome HEL; peptide DLk[…]; labeling site Lys2
T13 construct: endogenous in cells; host or cells: HeLa and PC3 cell lysates

[14] = target: T14, selected panels of kinases in HeLa and PC3 cell lysates (Homo sapiens, UniProt P53350); details: 10 uM; PLK1; peptide DLk[…]; proteome HEL; labeling site Lys2
T14 construct: endogenous in cells; host or cells: HeLa and PC3 cell lysates

[15] = target: T15, selected panels of kinases in HeLa and PC3 cell lysates (Homo sapiens, UniProt Q12851); details: 10 uM; proteome HEL; peptide […]kIVK; labeling site Lys1
T15 construct: endogenous in cells; host or cells: HeLa and PC3 cell lysates

[16] = target: T16, selected panels of kinases in HeLa and PC3 cell lysates (Homo sapiens, UniProt Q13555); details: 10 uM, peptide TSTQEYAAkIINTK, labeling site Lys1
T16 construct: endogenous in cells; host or cells: HeLa and PC3 cell lysates

[17] = target: T17, selected panels of kinases in HeLa and PC3 cell lysates (Homo sapiens, UniProt Q7RTN6); details: 10 uM; STLK5; peptide YSVk[…]; proteome HEL; labeling site Activation Loop
T17 construct: endogenous in cells; host or cells: HeLa and PC3 cell lysates

[18] = target: T18, selected panels of kinases in HeLa and PC3 cell lysates (Homo sapiens, UniProt Q8IU85); details: 10 uM; proteome HEL; peptide LFAVkCIPK; labeling site Lys1
T18 construct: endogenous in cells; host or cells: HeLa and PC3 cell lysates

[19] = target: T19, selected panels of kinases in HeLa and PC3 cell lysates (Homo sapiens, UniProt Q8TBX8); details: 10 uM, PIP4K2C, labeling site ATP
T19 construct: endogenous in cells; host or cells: HeLa and PC3 cell lysates
T19 sequence (Q8TBX8 1-421): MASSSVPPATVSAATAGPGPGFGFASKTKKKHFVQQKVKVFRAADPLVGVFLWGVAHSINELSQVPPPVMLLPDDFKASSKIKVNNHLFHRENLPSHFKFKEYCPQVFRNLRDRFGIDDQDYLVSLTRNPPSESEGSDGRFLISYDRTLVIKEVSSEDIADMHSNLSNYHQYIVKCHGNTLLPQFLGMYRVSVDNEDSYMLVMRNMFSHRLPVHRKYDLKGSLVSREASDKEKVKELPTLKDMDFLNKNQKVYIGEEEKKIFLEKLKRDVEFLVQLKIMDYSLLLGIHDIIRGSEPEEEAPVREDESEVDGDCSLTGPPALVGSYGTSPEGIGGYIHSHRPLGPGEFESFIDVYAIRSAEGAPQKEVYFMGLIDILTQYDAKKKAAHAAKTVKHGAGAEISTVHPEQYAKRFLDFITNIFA

[20] = target: T20, selected panels of kinases in HeLa and PC3 cell lysates (Homo sapiens, UniProt Q9NRM7); details: 10 uM; proteome HEL; peptide VDTHALYAMkTLR; labeling site Lys1
T20 construct: endogenous in cells; host or cells: HeLa and PC3 cell lysates

[21] = target: T21, selected panels of kinases in HeLa and PC3 cell lysates (Homo sapiens, UniProt Q9UHD2); details: 10 uM; TBK1; peptide TGDLFAIk[…]; proteome HEL; labeling site Lys1
T21 construct: endogenous in cells; host or cells: HeLa and PC3 cell lysates

[22] = target: T22, selected panels of kinases in HeLa and PC3 cell lysates (Homo sapiens, UniProt Q9Y5S2); details: 10 uM, proteome PC3
T22 construct: endogenous in cells; host or cells: HeLa and PC3 cell lysates

[23] = proteome HEL, peptide DLk[…], labeling site Lys2
[24] = proteome PC3, peptide DLk[…], labeling site Lys2
[25] = proteome PC3, peptide VAIkIISK, labeling site Lys1
[26] = peptide EVPVAIkTLK, labeling site Lys1
[27] = peptide […]kIPIR, labeling site Activation Loop
[28] = peptide ELPTLkDMDFLNK, proteome PC3
[29] = peptide DIk[…], labeling site Lys2
[30] = peptide […]kLPETK, labeling site Other

T10 sequence (P29317 24-976): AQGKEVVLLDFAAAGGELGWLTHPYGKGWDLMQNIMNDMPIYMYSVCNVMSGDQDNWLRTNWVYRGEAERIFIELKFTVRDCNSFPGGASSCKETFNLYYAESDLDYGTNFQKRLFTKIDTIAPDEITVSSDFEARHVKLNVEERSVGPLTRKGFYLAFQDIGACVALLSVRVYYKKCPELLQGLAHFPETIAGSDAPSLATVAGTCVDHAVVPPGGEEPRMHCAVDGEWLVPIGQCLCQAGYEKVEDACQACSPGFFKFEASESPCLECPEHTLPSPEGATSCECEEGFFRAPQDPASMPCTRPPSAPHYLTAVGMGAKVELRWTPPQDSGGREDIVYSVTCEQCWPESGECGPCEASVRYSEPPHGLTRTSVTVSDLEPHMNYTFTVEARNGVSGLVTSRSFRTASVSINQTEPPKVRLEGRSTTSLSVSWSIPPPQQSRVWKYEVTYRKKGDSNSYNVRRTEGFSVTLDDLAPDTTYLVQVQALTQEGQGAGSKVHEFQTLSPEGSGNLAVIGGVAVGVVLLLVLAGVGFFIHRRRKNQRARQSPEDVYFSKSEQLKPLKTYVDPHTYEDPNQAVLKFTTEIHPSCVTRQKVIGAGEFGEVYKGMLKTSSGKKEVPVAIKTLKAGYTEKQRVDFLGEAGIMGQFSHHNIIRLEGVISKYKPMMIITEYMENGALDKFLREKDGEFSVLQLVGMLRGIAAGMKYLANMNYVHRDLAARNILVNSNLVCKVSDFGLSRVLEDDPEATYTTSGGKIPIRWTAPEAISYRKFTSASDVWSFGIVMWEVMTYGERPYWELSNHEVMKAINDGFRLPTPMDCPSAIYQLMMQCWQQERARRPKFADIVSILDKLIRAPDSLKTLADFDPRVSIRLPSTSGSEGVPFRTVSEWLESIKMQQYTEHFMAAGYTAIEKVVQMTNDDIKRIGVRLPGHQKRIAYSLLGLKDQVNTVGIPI
T9 sequence (P27361 whole entry): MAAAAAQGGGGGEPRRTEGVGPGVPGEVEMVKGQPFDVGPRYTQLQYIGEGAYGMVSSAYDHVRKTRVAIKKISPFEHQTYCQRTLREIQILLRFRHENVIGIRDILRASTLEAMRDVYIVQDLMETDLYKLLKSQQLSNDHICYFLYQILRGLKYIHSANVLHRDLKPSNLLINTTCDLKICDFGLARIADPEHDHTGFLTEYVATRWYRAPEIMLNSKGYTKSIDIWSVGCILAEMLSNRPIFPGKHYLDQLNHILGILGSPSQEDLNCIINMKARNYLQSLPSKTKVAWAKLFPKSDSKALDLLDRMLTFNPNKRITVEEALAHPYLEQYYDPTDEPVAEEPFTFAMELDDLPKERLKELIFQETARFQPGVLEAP
T11 sequence (P41240 whole entry): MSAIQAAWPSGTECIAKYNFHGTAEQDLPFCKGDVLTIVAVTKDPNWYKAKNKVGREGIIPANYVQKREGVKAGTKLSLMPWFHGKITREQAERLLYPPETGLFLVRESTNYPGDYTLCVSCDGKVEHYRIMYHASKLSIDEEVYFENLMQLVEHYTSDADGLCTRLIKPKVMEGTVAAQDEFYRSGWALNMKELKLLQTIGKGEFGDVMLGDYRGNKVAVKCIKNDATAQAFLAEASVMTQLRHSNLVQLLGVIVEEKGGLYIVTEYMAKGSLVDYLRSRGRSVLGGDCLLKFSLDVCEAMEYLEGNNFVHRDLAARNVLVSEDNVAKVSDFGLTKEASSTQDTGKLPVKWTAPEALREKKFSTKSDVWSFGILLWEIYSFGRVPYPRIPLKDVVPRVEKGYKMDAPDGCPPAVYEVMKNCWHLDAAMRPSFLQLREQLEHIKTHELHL
T16 sequence (Q13555 whole entry): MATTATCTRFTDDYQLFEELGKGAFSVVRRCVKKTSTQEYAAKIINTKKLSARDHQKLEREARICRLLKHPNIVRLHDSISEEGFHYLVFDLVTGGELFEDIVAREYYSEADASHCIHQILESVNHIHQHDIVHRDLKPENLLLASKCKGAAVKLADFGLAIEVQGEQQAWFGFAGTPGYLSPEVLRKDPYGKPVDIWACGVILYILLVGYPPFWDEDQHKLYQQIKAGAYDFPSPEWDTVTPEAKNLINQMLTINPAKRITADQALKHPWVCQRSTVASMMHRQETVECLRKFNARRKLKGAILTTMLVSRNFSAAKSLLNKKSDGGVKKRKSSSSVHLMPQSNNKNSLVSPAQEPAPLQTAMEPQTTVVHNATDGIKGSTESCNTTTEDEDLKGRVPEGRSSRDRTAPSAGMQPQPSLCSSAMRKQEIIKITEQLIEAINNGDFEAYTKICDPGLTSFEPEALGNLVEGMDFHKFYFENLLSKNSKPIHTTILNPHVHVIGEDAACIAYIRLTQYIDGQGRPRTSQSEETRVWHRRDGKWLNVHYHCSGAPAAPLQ
T1 sequence (O00418 whole entry, the tested form may be a part): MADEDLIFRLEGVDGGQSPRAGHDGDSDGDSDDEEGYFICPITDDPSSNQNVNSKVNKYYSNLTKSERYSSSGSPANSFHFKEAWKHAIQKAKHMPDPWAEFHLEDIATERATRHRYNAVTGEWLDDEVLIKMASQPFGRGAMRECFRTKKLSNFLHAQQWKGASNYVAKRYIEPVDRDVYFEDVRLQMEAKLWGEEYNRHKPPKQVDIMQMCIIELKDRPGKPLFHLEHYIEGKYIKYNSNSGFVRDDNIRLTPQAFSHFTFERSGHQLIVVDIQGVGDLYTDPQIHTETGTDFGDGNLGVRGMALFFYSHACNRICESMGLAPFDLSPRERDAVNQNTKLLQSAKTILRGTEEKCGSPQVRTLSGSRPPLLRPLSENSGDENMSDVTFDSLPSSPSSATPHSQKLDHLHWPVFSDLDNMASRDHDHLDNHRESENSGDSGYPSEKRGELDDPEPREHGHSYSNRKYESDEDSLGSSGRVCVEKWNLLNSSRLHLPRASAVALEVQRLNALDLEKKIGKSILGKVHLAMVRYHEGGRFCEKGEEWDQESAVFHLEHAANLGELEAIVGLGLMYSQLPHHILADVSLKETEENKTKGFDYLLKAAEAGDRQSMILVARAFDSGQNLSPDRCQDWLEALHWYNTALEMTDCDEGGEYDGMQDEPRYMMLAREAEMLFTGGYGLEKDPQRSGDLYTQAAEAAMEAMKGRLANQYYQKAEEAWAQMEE
T3 sequence (O75716 whole entry): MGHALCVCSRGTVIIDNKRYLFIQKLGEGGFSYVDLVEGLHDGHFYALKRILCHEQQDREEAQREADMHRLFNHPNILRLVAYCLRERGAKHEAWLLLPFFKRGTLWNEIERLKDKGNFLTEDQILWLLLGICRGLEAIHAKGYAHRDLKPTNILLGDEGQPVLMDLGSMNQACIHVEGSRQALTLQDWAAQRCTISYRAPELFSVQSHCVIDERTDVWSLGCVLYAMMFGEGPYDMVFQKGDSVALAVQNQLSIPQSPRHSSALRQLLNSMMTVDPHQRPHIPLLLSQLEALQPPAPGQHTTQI
T6 sequence (O96017 whole entry): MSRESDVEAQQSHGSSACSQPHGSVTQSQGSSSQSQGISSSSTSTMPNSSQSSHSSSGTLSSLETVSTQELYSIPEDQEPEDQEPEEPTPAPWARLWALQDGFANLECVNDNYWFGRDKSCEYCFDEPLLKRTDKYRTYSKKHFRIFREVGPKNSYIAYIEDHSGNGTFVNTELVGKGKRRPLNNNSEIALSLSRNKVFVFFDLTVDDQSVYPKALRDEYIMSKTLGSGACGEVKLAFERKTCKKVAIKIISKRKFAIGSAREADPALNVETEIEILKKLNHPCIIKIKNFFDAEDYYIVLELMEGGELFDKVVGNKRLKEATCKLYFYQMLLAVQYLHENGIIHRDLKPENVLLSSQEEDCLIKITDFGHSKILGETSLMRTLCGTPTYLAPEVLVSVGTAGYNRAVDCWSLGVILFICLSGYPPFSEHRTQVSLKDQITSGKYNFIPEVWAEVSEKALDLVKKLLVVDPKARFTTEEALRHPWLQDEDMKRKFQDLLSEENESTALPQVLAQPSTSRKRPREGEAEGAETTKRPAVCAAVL
T2 sequence (O15111 whole entry): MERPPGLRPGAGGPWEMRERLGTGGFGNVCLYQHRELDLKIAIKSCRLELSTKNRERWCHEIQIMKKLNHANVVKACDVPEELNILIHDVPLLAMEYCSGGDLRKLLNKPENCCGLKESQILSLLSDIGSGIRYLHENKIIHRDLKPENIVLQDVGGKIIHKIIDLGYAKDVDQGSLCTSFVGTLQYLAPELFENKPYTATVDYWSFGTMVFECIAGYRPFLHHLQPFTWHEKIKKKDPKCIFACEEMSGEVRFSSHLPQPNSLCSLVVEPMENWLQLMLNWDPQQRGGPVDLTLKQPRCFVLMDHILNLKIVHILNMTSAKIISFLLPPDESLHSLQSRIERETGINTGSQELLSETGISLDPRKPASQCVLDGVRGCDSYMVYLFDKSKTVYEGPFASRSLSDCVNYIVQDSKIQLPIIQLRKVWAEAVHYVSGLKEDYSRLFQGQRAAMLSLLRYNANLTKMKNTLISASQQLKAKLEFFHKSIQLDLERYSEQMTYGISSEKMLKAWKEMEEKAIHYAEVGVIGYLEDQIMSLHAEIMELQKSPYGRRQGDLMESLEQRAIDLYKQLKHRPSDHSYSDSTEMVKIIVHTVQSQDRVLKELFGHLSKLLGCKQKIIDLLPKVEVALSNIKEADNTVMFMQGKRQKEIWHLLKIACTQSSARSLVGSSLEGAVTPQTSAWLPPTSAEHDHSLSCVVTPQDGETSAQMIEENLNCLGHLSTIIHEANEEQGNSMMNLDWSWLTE
T13 sequence (P50613 whole entry): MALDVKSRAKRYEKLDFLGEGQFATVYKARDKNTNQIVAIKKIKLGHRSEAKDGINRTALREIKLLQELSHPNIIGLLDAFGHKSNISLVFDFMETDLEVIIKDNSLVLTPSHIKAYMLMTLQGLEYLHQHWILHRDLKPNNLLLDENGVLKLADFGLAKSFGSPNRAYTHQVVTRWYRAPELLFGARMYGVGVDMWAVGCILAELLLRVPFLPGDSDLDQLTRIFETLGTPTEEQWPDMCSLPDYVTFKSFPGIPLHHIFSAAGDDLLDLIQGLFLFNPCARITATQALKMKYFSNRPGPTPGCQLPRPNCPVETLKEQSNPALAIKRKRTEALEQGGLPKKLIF

Row | Compound | % Inhibiton, eEF2K ([1]; proteome HEL) [%] | % Inhibiton, eEF2K ([1]; proteome PC3) [%] | % Inhibiton, IKKa [2] [%] | % Inhibiton, MPSK1 ([3]; proteome HEL) [%] | % Inhibiton, MPSK1 ([3]; proteome PC3) [%] | % Inhibition PFTAIRE1 [4] [%] | % Inhibiton, LATS1 [5] [%] | % Inhibiton, CHK2 [6, 23] [%] | % Inhibiton, CHK2 [6, 24] [%] | % Inhibiton, CHK2 [6, 25] [%] | % Inhibiton, ARAF [7] [%] | % Inhibition SRC [8] [%] | % Inhibiton, Erk1 ([9]; proteome HEL) [%] | % Inhibiton, Erk1 ([9]; proteome PC3) [%] | % Inhibiton, EphA2 [10, 26] [%] | % Inhibiton, EphA2 [10, 27] [%] | % Inhibiton, CSK ([11]; proteome HEL) [%] | % Inhibiton, CSK ([11]; proteome PC3) [%] | % Inhibition TEC [12] [%] | % Inhibiton, CDK7 [13] [%] | other results
1 | CCOc1cc(C(=O)N2CCC(N3CCN(C)CC3)CC2)ccc1Nc1ncc2c(n1)N(C1CCCC1)c1ccccc1C(=O)N2C [Compound 26] | 1.2 | 1.9 | -5.9 | -9.4 | 5.8 | -14.3 | 6.8 | -18.8 | 14.1 | 4.6 | 2.9 | 13.8 | -1.3 | -0.2 | -1.4 | -3 | 14.3 | -6.9 | 5.8 | 22.2 | % Inhibition PLK1 [14]: 23.9%; % Inhibiton, GCK [15]: 6.8%; % Inhibiton, CaMK2g ([16]; proteome HEL): 7.3%; % Inhibiton, CaMK2g ([16]; proteome PC3): -4.7%; % Inhibition STLK5 [17]: ~72.8%; % Inhibiton, CaMK1d [18]: 19.9%; % Inhibition PIP4K2C [19, 28]: -6.2%; % Inhibition PIP4K2C ([19]; peptide TLVIk[…], proteome HEL): 4.7%; % Inhibition PIP4K2C ([19]; peptide TLVIk[…], proteome PC3): -5.8%; % Inhibiton, LATS2 [20]: 3.2%; % Inhibition TBK1 [21]: ~57.6%; % Inhibiton, MRCKb [22, 29]: 1.8%; % Inhibiton, MRCKb [22, 30]: 9.2%
2 | COc1cc(C(=O)N2CCC(N3CCN(C)CC3)CC2)ccc1Nc1ncc2c(n1)N(C1CCCC1)c1ccccc1C(=O)N2C [Compound 25, 11-cyclopentyl-2-((2-methoxy-4-(4-(4-methylpiperazin-1-yl)piperidine-1-carbonyl)phenyl)amino)-5-methyl-5H-benzo[e]pyrimido[5,4-b][1,4]diazepin-6(11H)-one] | 8.7 | -9.1 | 5.3 | 29.5 | -4.3 | -9.7 | 7.2 | 15.6 | 0.0283 | 11.3 | -0.657 | -3.4 | 20.3 | 8.4 | -0.8 | -2.3 | 6.5 | -4.8 | 8.9 | 67.9 | % Inhibition PLK1 [14]: 9.6%; % Inhibiton, GCK [15]: -2.3%; % Inhibiton, CaMK2g ([16]; proteome HEL): 8.7%; % Inhibiton, CaMK2g ([16]; proteome PC3): 7.8%; % Inhibition STLK5 [17]: -32.9%; % Inhibiton, CaMK1d [18]: 5.8%; % Inhibition PIP4K2C [19, 28]: 21.5%; % Inhibition PIP4K2C ([19]; peptide TLVIk[…], proteome HEL): 9.5%; % Inhibition PIP4K2C ([19]; peptide TLVIk[…], proteome PC3): -0.123%; % Inhibiton, LATS2 [20]: -4.2%; % Inhibition TBK1 [21]: -96.8%; % Inhibiton, MRCKb [22, 29]: -5.1%; % Inhibiton, MRCKb [22, 30]: 6.2%
